Test results from PubChem BioAssay (NCI).
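Tested at 5 concentrations; 48 h exposure; 96-well plates; endpoints linearly interpolated, else capped at highest concentration. GI50 = concentration required for 50% inhibition of growth. TGI: total growth inhibition.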 Where a SMILES comes first, the peptide text is derived from it. [ ]: non-standard residue; d: D form. ξ: configuration not given here. Pentanoyl(2-O,4-OH,5-Cl) = O=C(O)C(O)CC(O)CCl; Ile(3ξ) = CCC(C)[C@H](N)C(=O)O; NMeV = CN[C@H](C(=O)O)C(C)C; NMeA = CN[C@@H](C)C(=O)O; βAla = NCCC(=O)O

Experiments:
Assay in all cases: NCI anticancer screen, dose series, 48 h; in the data active means GI50 below about 0.43 µM; inactive means the rest
786-0 renal = system: 786-0 renal
UACC-62 melanoma = system: UACC-62 melanoma
OVCAR-8 ovarian = system: OVCAR-8 ovarian
SK-MEL-28 melanoma = system: SK-MEL-28 melanoma
M19-MEL melanoma = system: M19-MEL melanoma
HCT-15 colon = system: HCT-15 colon
LXFL 529 NSCLC = system: LXFL 529 NSCLC
UO-31 renal = system: UO-31 renal
MCF7 breast = system: MCF7 breast
T-47D breast = system: T-47D breast

O=NN(CC1(O)OCC(O)C(O)C1O)C(Cc1c[nH]c2ccccc12)C(=O)O (stereo not given)
> 100 µM: TGI (786-0 renal) | TGI (UACC-62 melanoma) | TGI (OVCAR-8 ovarian) | TGI (SK-MEL-28 melanoma) | TGI (M19-MEL melanoma)

CCOc1ccc2c(c1)[n+]([O-])c(-c1ccccc1)c(N)[n+]2[O-]
> 100 µM: TGI (786-0 renal) | TGI (UACC-62 melanoma) | TGI (HCT-15 colon) | TGI (OVCAR-8 ovarian) | TGI (LXFL 529 NSCLC) | TGI (SK-MEL-28 melanoma) | TGI (UO-31 renal) | TGI (M19-MEL melanoma)

COC1C(OC(=O)/C=C/C=C/C=C/C=C/C(=O)O)CCC2(CO2)C1C1(C)OC1CC=C(C)C (stereo not given)
inactive: GI50 (786-0 renal) 0.31 µM | GI50 (HCT-15 colon) 0.296 µM | GI50 (OVCAR-8 ovarian) 0.301 µM | GI50 (T-47D breast) 0.326 µM | GI50 (SK-MEL-28 melanoma) 0.442 µM
> 82.2 µM: TGI (UO-31 renal)
> 92 µM: TGI (OVCAR-8 ovarian)
> 93.9 µM: TGI (HCT-15 colon)
> 100 µM: TGI (786-0 renal) | TGI (MCF7 breast) | TGI (SK-MEL-28 melanoma) | TGI (M19-MEL melanoma)
active: GI50 (MCF7 breast) 0.172 µM | GI50 (UACC-62 melanoma) 0.101 µM
70.2 µM: TGI (T-47D breast)

CCN(Cc1ccccc1)c1ccc(/C=C2\COc3ccccc3C2=O)cc1
> 1000 µM: TGI (786-0 renal) | TGI (MCF7 breast) | TGI (UACC-62 melanoma) | TGI (HCT-15 colon) | TGI (OVCAR-8 ovarian) | TGI (T-47D breast) | TGI (SK-MEL-28 melanoma) | TGI (UO-31 renal)
inactive: GI50 (786-0 renal) > 1000 µM | GI50 (MCF7 breast) 69.4 µM | GI50 (UACC-62 melanoma) 304 µM | GI50 (HCT-15 colon) 106 µM | GI50 (OVCAR-8 ovarian) > 1000 µM | GI50 (T-47D breast) 213 µM | GI50 (SK-MEL-28 melanoma) > 1000 µM | GI50 (UO-31 renal) 286 µM

CN1CCN(CCCOC(=O)c2c3c(n4ccccc24)C(=O)c2ncccc2C3=O)CC1
1.52 µM: TGI (HCT-15 colon)
29.6 µM: TGI (T-47D breast)
inactive: GI50 (T-47D breast) 1.89 µM
4.25 µM: TGI (SK-MEL-28 melanoma)
active: GI50 (786-0 renal) < 0.01 µM | GI50 (MCF7 breast) < 0.01 µM | GI50 (UACC-62 melanoma) < 0.01 µM | GI50 (HCT-15 colon) < 0.0143 µM | GI50 (OVCAR-8 ovarian) < 0.011 µM | GI50 (SK-MEL-28 melanoma) 0.08 µM | GI50 (UO-31 renal) < 0.01 µM
11.9 µM: TGI (OVCAR-8 ovarian)
0.0324 µM: TGI (UACC-62 melanoma)
0.0178 µM: TGI (MCF7 breast)
0.0407 µM: TGI (786-0 renal)

CC(C)(Sc1cc(C(C)(C)C)c(O)c(C(C)(C)C)c1)Sc1cc(C(C)(C)C)c(O)c(C(C)(C)C)c1
> 100 µM: TGI (786-0 renal) | TGI (MCF7 breast) | TGI (UACC-62 melanoma) | TGI (HCT-15 colon) | TGI (OVCAR-8 ovarian) | TGI (T-47D breast) | TGI (SK-MEL-28 melanoma) | TGI (UO-31 renal)

CCN(CC)CC(C(=O)Nc1c(C)cccc1C)/C(C)=N\NC(=S)NN (stereo not given)
> 100 µM: TGI (786-0 renal) | TGI (UACC-62 melanoma) | TGI (OVCAR-8 ovarian) | TGI (LXFL 529 NSCLC) | TGI (SK-MEL-28 melanoma) | TGI (UO-31 renal) | TGI (M19-MEL melanoma)

CCC(C)[C@@H]1NC(=O)[C@@H]2CCCN2C(=O)C(CC(O)CCl)OC(=O)CCNC(=O)[C@H](C)N(C)C(=O)[C@H](C(C)C)N(C)C1=O (stereo not given in full) (cyclo([Ile(3ξ)][NMeV][NMeA][βAla][Pentanoyl(2-O,4-OH,5-Cl)]P))
> 100 µM: TGI (MCF7 breast) | TGI (HCT-15 colon) | TGI (OVCAR-8 ovarian) | TGI (T-47D breast) | TGI (SK-MEL-28 melanoma) | TGI (UO-31 renal)
> 86.2 µM: TGI (786-0 renal)
7.71 µM: TGI (UACC-62 melanoma)

C[C@]12CC[C@H]3[C@@H](CCC4=CC(=O)CC[C@@]43C)[C@]1(O)CC[C@]2(O)C(=O)CO
> 100 µM: TGI (786-0 renal) | TGI (MCF7 breast) | TGI (UACC-62 melanoma) | TGI (HCT-15 colon) | TGI (OVCAR-8 ovarian) | TGI (T-47D breast) | TGI (SK-MEL-28 melanoma) | TGI (UO-31 renal)

COc1cc(-c2csc(NC(=O)Nc3ccc(Cl)cc3)n2)cc(OC)c1OC
> 40.9 µM: TGI (HCT-15 colon)
10.7 µM: TGI (MCF7 breast)
7.12 µM: TGI (SK-MEL-28 melanoma)
7.83 µM: TGI (786-0 renal)
5.85 µM: TGI (OVCAR-8 ovarian)
7.68 µM: TGI (UO-31 renal)
inactive: GI50 (786-0 renal) 2.35 µM | GI50 (MCF7 breast) 2.53 µM | GI50 (UACC-62 melanoma) 1.93 µM | GI50 (HCT-15 colon) 2.9 µM | GI50 (OVCAR-8 ovarian) 2.46 µM | GI50 (T-47D breast) 1.91 µM | GI50 (SK-MEL-28 melanoma) 2.44 µM | GI50 (UO-31 renal) 2.35 µM
6.29 µM: TGI (T-47D breast)
4.22 µM: TGI (UACC-62 melanoma)

COc1ccc(-c2nn3ncccc3c2-c2ccnc(Nc3ccc(F)c(F)c3)n2)cc1
> 20.9 µM: TGI (UO-31 renal)
> 25 µM: TGI (786-0 renal) | TGI (MCF7 breast) | TGI (UACC-62 melanoma) | TGI (HCT-15 colon) | TGI (OVCAR-8 ovarian) | TGI (T-47D breast) | TGI (SK-MEL-28 melanoma)
inactive: GI50 (786-0 renal) 11.1 µM | GI50 (MCF7 breast) 10.6 µM | GI50 (UACC-62 melanoma) 7.12 µM | GI50 (HCT-15 colon) 8.77 µM | GI50 (OVCAR-8 ovarian) 11.2 µM | GI50 (T-47D breast) 6.42 µM | GI50 (SK-MEL-28 melanoma) 17.8 µM | GI50 (UO-31 renal) 5.8 µM

Clc1cccc(-c2cc(-c3ccc4c(c3)OCCO4)[nH]n2)c1
32.9 µM: TGI (MCF7 breast)
53.8 µM: TGI (T-47D breast)
64.9 µM: TGI (786-0 renal)
53.3 µM: TGI (OVCAR-8 ovarian)
33.5 µM: TGI (HCT-15 colon)
44.8 µM: TGI (UACC-62 melanoma)
57 µM: TGI (SK-MEL-28 melanoma)
43.9 µM: TGI (UO-31 renal)
inactive: GI50 (786-0 renal) 23.1 µM | GI50 (MCF7 breast) 4.25 µM | GI50 (UACC-62 melanoma) 2 µM | GI50 (HCT-15 colon) 1.11 µM | GI50 (OVCAR-8 ovarian) 6.74 µM | GI50 (T-47D breast) 3.64 µM | GI50 (SK-MEL-28 melanoma) 27.2 µM | GI50 (UO-31 renal) 9.27 µM

CC(C)OC(=O)Nc1c([N+](=O)[O-])cc(C(F)(F)F)cc1[N+](=O)[O-]
> 100 µM: TGI (786-0 renal) | TGI (MCF7 breast) | TGI (UACC-62 melanoma) | TGI (HCT-15 colon) | TGI (OVCAR-8 ovarian) | TGI (LXFL 529 NSCLC) | TGI (T-47D breast) | TGI (SK-MEL-28 melanoma) | TGI (UO-31 renal)

CC1=NC2(C(=O)O)C3(C(=O)O)N=C(C)OC3(C(F)(F)F)C2(C(F)(F)F)O1 (stereo not given)
> 100 µM: TGI (786-0 renal) | TGI (UACC-62 melanoma) | TGI (OVCAR-8 ovarian) | TGI (SK-MEL-28 melanoma) | TGI (UO-31 renal) | TGI (M19-MEL melanoma)

[Cu].c1ccc2c(c1)C1=NC2=NC2=NC(=NC3=NC(=NC4=NC(=N1)c1ccccc14)c1ccccc13)c1ccccc12
> 100 µM: TGI (786-0 renal) | TGI (MCF7 breast) | TGI (UACC-62 melanoma) | TGI (HCT-15 colon) | TGI (OVCAR-8 ovarian) | TGI (T-47D breast) | TGI (SK-MEL-28 melanoma) | TGI (UO-31 renal)
inactive: GI50 (786-0 renal) > 100 µM | GI50 (MCF7 breast) > 100 µM | GI50 (UACC-62 melanoma) > 100 µM | GI50 (HCT-15 colon) > 100 µM | GI50 (OVCAR-8 ovarian) > 100 µM | GI50 (T-47D breast) > 100 µM | GI50 (SK-MEL-28 melanoma) > 100 µM | GI50 (UO-31 renal) > 100 µM

COc1ccc2c(c1[N+](=O)[O-])CC[C@@H]1[C@@H]2CC[C@]2(C)C(=O)CC[C@@H]12
inactive: GI50 (786-0 renal) > 25 µM | GI50 (MCF7 breast) 998 µM | GI50 (UACC-62 melanoma) 387 µM | GI50 (HCT-15 colon) > 1000 µM | GI50 (OVCAR-8 ovarian) 462 µM | GI50 (T-47D breast) 675 µM | GI50 (SK-MEL-28 melanoma) > 843 µM | GI50 (UO-31 renal) > 824 µM
> 25 µM: TGI (M19-MEL melanoma)
> 562 µM: TGI (786-0 renal)
> 1000 µM: TGI (MCF7 breast) | TGI (HCT-15 colon) | TGI (OVCAR-8 ovarian) | TGI (T-47D breast) | TGI (UO-31 renal)

Clc1ccc2c(NCCCCNc3nc(N4CCOCC4)nc4ccccc34)ccnc2c1
11.4 µM: TGI (HCT-15 colon)
inactive: GI50 (786-0 renal) 2.28 µM | GI50 (MCF7 breast) 3.81 µM | GI50 (UACC-62 melanoma) 1.92 µM | GI50 (HCT-15 colon) 2.75 µM | GI50 (OVCAR-8 ovarian) 3.53 µM | GI50 (T-47D breast) 2.23 µM | GI50 (SK-MEL-28 melanoma) 2.03 µM | GI50 (UO-31 renal) 1.66 µM
17.7 µM: TGI (MCF7 breast)
3.48 µM: TGI (UACC-62 melanoma)
10.6 µM: TGI (OVCAR-8 ovarian)
4.03 µM: TGI (SK-MEL-28 melanoma)
3.12 µM: TGI (UO-31 renal)
5.94 µM: TGI (786-0 renal)
6.82 µM: TGI (T-47D breast)
